Columns and labels:
Assay type in all cases: in vivo
Stellaria media = experiment: Test Example 4: herbicidal effect by soil treatment (symbol P); details: application herbicide amount 320 g/ha
Outline: (§1)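 Seeds were sown in sterilized diluvial soil, covered with about 1.5 cm of soil, and the soil surface was sprayed with a water-diluted emulsion of the compound at a predetermined rate. Plants grew in a greenhouse at 25° C. to 30° C.; effects were scored visually 3 weeks after application.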

Setaria viridis = experiment: Test Example 4: herbicidal effect by soil treatment (symbol G); details: application herbicide amount 320 g/ha
Outline: as §1

rapeseed = experiment: Test Example 5: effect on crop by foliage application, plastic box (symbol g); details: 320 g/ha, 3 weeks after application
Outline: (§2)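 Soil: sterilized diluvial. Container: plastic box, 21 × 13 cm, 7 cm deep. Sowing: spot-like, ~1.5 cm cover. Growth: greenhouse, 25° C. to 30° C.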

corn [1] = experiment: Test Example 4: effect on crop by soil treatment (symbol c); details: application herbicide amount 320 g/ha
Outline: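 Plants are raised in a greenhouse (25° C. to 30° C.) from spot-sown seed, which sits under about 1.5 cm of sterilized diluvial soil in a box shared with weed species.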

Veronica persica = experiment: Test Example 5: herbicidal effect by foliage application, plastic box (symbol R); details: 320 g/ha, 3 weeks after application
Outline: (§3)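 Herbicide, formulated as an emulsion and diluted in water, is sprayed onto the aerial parts of 14-day seedlings. These were grown at 25° C. to 30° C. in sterilized diluvial soil; effects are graded after 3 weeks.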

wheat [2] = experiment: Test Example 4: effect on crop by soil treatment (symbol e); details: application herbicide amount 320 g/ha
Outline: (§4)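 Crop seed is sown in spots together with several weed species in a box of sterilized diluvial soil. It is covered by about 1.5 cm of soil and kept in a greenhouse held between 25° C. and 30° C.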

corn [3] = experiment: Test Example 5: effect on crop by foliage application, plastic box (symbol c); details: 320 g/ha, 3 weeks after application
Outline: as §2

soybean = experiment: Test Example 5: effect on crop by foliage application, plastic box (symbol d); details: 320 g/ha, 3 weeks after application
Outline: as §2

Scirpus juncoides = experiment: Test Example 1: herbicidal activity, application before weed generation in submerged conditions (symbol B); details: application herbicide amount 320 g/ha
Outline: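 Steps: alluvial soil flooded to 4 cm; weed seeds sown together; rice seedlings (2.5 leaf) transplanted; diluted emulsion applied to water surface the same day as sowing; plants grown at 25–30 °C in greenhouse; herbicidal effect rated on a 0–5 scale at 3 weeks.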

[4] = test system: Echinochloa crus-galli var. crus-galli; experiment: Test Example 4: herbicidal effect by soil treatment (symbol H); details: application herbicide amount 320 g/ha
Outline: as §1

Apera spica-venti = experiment: Test Example 5: herbicidal effect by foliage application, plastic box (symbol L); details: 320 g/ha, 3 weeks after application
Outline: as §3

rice = experiment: Test Example 4: effect on crop by soil treatment (symbol b); details: application herbicide amount 320 g/ha
Outline: as §4

wheat [5] = experiment: Test Example 5: effect on crop by foliage application, plastic box (symbol e); details: 320 g/ha, 3 weeks after application
Outline: as §2

Digitaria ciliaris = experiment: Test Example 5: herbicidal effect by foliage application, plastic box (symbol F); details: 320 g/ha, 3 weeks after application
Outline: as §3

Lolium multiflorum Lam. = experiment: Test Example 4: herbicidal effect by soil treatment (symbol K); details: application herbicide amount 320 g/ha
Outline: as §1

[6] = test system: Echinochloa crus-galli var. crus-galli; experiment: Test Example 3: herbicidal effect by foliage application, Wagner pot (symbol H); details: application herbicide amount 320 g/ha
Outline: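 Herbicidal activity was rated three weeks after a foliar spray of diluted emulsion concentrate, applied at a predetermined dose to plants grown for 14 days from seed in waterlogged alluvial soil within a 25–30 °C greenhouse.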

Alopecurus myosuroides = experiment: Test Example 4: herbicidal effect by soil treatment (symbol J); details: application herbicide amount 320 g/ha
Outline: as §1

CON=C(CC1CC(O)=C(c2c(C)cc(C)cc2C)C1=O)C(C)(C)C (centres unmarked) [1-059]
P (Stellaria media) herbicidal effect grade (Stellaria media): 0 (Herbicidal ratio of 5% or lower (almost no effect)) | G (Setaria viridis) herbicidal effect grade (Setaria viridis): 4 (Herbicidal ratio of 70% or higher and lower than 90%) | g: rapeseed, effect on crop grade (rapeseed): 3 (Herbicidal ratio of 40% or higher and lower than 70%) | c (corn) effect on crop grade (corn [1]): 3 (Herbicidal ratio of 40% or higher and lower than 70%) | R: Veronica persica, herbicidal effect grade (Veronica persica): 0 (Herbicidal ratio of 5% or lower (almost no effect)) | e (wheat) effect on crop grade (wheat [2]): 0 (Herbicidal ratio of 5% or lower (almost no effect)) | c: corn, effect on crop grade (corn [3]): 4 (Herbicidal ratio of 70% or higher and lower than 90%) | d: soybean, effect on crop grade (soybean): 0 (Herbicidal ratio of 5% or lower (almost no effect)) | Herbicidal effect grade, B: Scirpus juncoides (Scirpus juncoides): 3 (Herbicidal ratio of 40% or higher and lower than 70%) | H (Echinochloa crus-galli var. crus-galli) herbicidal effect grade [4]: 4 (Herbicidal ratio of 70% or higher and lower than 90%) | L: Apera spica-venti, herbicidal effect grade (Apera spica-venti): 4 (Herbicidal ratio of 70% or higher and lower than 90%) | b (directly sowed rice plant) effect on crop grade (rice): 4 (Herbicidal ratio of 70% or higher and lower than 90%) | e: wheat, effect on crop grade (wheat [5]): 0 (Herbicidal ratio of 5% or lower (almost no effect)) | F: Digitaria ciliaris, herbicidal effect grade (Digitaria ciliaris): 1 (Herbicidal ratio of 5% or higher and lower than 20%) | K (Lolium multiflorum Lam.) herbicidal effect grade (Lolium multiflorum Lam.): 5 (Herbicidal ratio of 90% or more (almost completely withered)) | herbicidal effect on H (Echinochloa crus-galli var. crus-galli), grade 0-5 [6]: 4 (Herbicidal ratio of 70% or higher and lower than 90%) | J (Alopecurus myosuroides) herbicidal effect grade (Alopecurus myosuroides): 3 (Herbicidal ratio of 40% or higher and lower than 70%)

CON=C(C)CC1CC(OC(=O)C(C)(C)Oc2cccc(Cl)c2)=C(c2c(C)cc(C)cc2C)C1=O (centres unmarked) [1-065]
P (Stellaria media) herbicidal effect grade (Stellaria media): 0 (Herbicidal ratio of 5% or lower (almost no effect)) | G (Setaria viridis) herbicidal effect grade (Setaria viridis): 5 (Herbicidal ratio of 90% or more (almost completely withered)) | g: rapeseed, effect on crop grade (rapeseed): 4 (Herbicidal ratio of 70% or higher and lower than 90%) | c (corn) effect on crop grade (corn [1]): 5 (Herbicidal ratio of 90% or more (almost completely withered)) | R: Veronica persica, herbicidal effect grade (Veronica persica): 3 (Herbicidal ratio of 40% or higher and lower than 70%) | e (wheat) effect on crop grade (wheat [2]): 4 (Herbicidal ratio of 70% or higher and lower than 90%) | c: corn, effect on crop grade (corn [3]): 5 (Herbicidal ratio of 90% or more (almost completely withered)) | d: soybean, effect on crop grade (soybean): 4 (Herbicidal ratio of 70% or higher and lower than 90%) | Herbicidal effect grade, B: Scirpus juncoides (Scirpus juncoides): 5 (Herbicidal ratio of 90% or more (almost completely withered)) | H (Echinochloa crus-galli var. crus-galli) herbicidal effect grade [4]: 5 (Herbicidal ratio of 90% or more (almost completely withered)) | L: Apera spica-venti, herbicidal effect grade (Apera spica-venti): 5 (Herbicidal ratio of 90% or more (almost completely withered)) | b (directly sowed rice plant) effect on crop grade (rice): 5 (Herbicidal ratio of 90% or more (almost completely withered)) | e: wheat, effect on crop grade (wheat [5]): 5 (Herbicidal ratio of 90% or more (almost completely withered)) | F: Digitaria ciliaris, herbicidal effect grade (Digitaria ciliaris): 5 (Herbicidal ratio of 90% or more (almost completely withered)) | K (Lolium multiflorum Lam.) herbicidal effect grade (Lolium multiflorum Lam.): 5 (Herbicidal ratio of 90% or more (almost completely withered)) | herbicidal effect on H (Echinochloa crus-galli var. crus-galli), grade 0-5 [6]: 5 (Herbicidal ratio of 90% or more (almost completely withered)) | J (Alopecurus myosuroides) herbicidal effect grade (Alopecurus myosuroides): 5 (Herbicidal ratio of 90% or more (almost completely withered))

CON=C(C)CC1CC(OC(=O)C(C)(C)Oc2ccc(Cl)cc2)=C(c2c(C)cc(C)cc2C)C1=O (centres unmarked) [1-051]
P (Stellaria media) herbicidal effect grade (Stellaria media): 0 (Herbicidal ratio of 5% or lower (almost no effect)) | G (Setaria viridis) herbicidal effect grade (Setaria viridis): 5 (Herbicidal ratio of 90% or more (almost completely withered)) | g: rapeseed, effect on crop grade (rapeseed): 4 (Herbicidal ratio of 70% or higher and lower than 90%) | c (corn) effect on crop grade (corn [1]): 4 (Herbicidal ratio of 70% or higher and lower than 90%) | R: Veronica persica, herbicidal effect grade (Veronica persica): 0 (Herbicidal ratio of 5% or lower (almost no effect)) | e (wheat) effect on crop grade (wheat [2]): 2 (Herbicidal ratio of 20% or higher and lower than 40%) | c: corn, effect on crop grade (corn [3]): 5 (Herbicidal ratio of 90% or more (almost completely withered)) | d: soybean, effect on crop grade (soybean): 4 (Herbicidal ratio of 70% or higher and lower than 90%) | Herbicidal effect grade, B: Scirpus juncoides (Scirpus juncoides): 5 (Herbicidal ratio of 90% or more (almost completely withered)) | H (Echinochloa crus-galli var. crus-galli) herbicidal effect grade [4]: 5 (Herbicidal ratio of 90% or more (almost completely withered)) | L: Apera spica-venti, herbicidal effect grade (Apera spica-venti): 5 (Herbicidal ratio of 90% or more (almost completely withered)) | b (directly sowed rice plant) effect on crop grade (rice): 5 (Herbicidal ratio of 90% or more (almost completely withered)) | e: wheat, effect on crop grade (wheat [5]): 5 (Herbicidal ratio of 90% or more (almost completely withered)) | F: Digitaria ciliaris, herbicidal effect grade (Digitaria ciliaris): 5 (Herbicidal ratio of 90% or more (almost completely withered)) | K (Lolium multiflorum Lam.) herbicidal effect grade (Lolium multiflorum Lam.): 5 (Herbicidal ratio of 90% or more (almost completely withered)) | herbicidal effect on H (Echinochloa crus-galli var. crus-galli), grade 0-5 [6]: 5 (Herbicidal ratio of 90% or more (almost completely withered)) | J (Alopecurus myosuroides) herbicidal effect grade (Alopecurus myosuroides): 5 (Herbicidal ratio of 90% or more (almost completely withered))

CON=C(CC1CC(O)=C(c2c(C)cc(C)cc2C)C1=O)C(C)C (centres unmarked) [1-048]
P (Stellaria media) herbicidal effect grade (Stellaria media): 0 (Herbicidal ratio of 5% or lower (almost no effect)) | G (Setaria viridis) herbicidal effect grade (Setaria viridis): 5 (Herbicidal ratio of 90% or more (almost completely withered)) | g: rapeseed, effect on crop grade (rapeseed): 3 (Herbicidal ratio of 40% or higher and lower than 70%) | c (corn) effect on crop grade (corn [1]): 3 (Herbicidal ratio of 40% or higher and lower than 70%) | R: Veronica persica, herbicidal effect grade (Veronica persica): 3 (Herbicidal ratio of 40% or higher and lower than 70%) | e (wheat) effect on crop grade (wheat [2]): 2 (Herbicidal ratio of 20% or higher and lower than 40%) | c: corn, effect on crop grade (corn [3]): 4 (Herbicidal ratio of 70% or higher and lower than 90%) | d: soybean, effect on crop grade (soybean): 0 (Herbicidal ratio of 5% or lower (almost no effect)) | Herbicidal effect grade, B: Scirpus juncoides (Scirpus juncoides): 4 (Herbicidal ratio of 70% or higher and lower than 90%) | H (Echinochloa crus-galli var. crus-galli) herbicidal effect grade [4]: 5 (Herbicidal ratio of 90% or more (almost completely withered)) | L: Apera spica-venti, herbicidal effect grade (Apera spica-venti): 5 (Herbicidal ratio of 90% or more (almost completely withered)) | b (directly sowed rice plant) effect on crop grade (rice): 5 (Herbicidal ratio of 90% or more (almost completely withered)) | e: wheat, effect on crop grade (wheat [5]): 0 (Herbicidal ratio of 5% or lower (almost no effect)) | F: Digitaria ciliaris, herbicidal effect grade (Digitaria ciliaris): 4 (Herbicidal ratio of 70% or higher and lower than 90%) | K (Lolium multiflorum Lam.) herbicidal effect grade (Lolium multiflorum Lam.): 5 (Herbicidal ratio of 90% or more (almost completely withered)) | herbicidal effect on H (Echinochloa crus-galli var. crus-galli), grade 0-5 [6]: 5 (Herbicidal ratio of 90% or more (almost completely withered)) | J (Alopecurus myosuroides) herbicidal effect grade (Alopecurus myosuroides): 5 (Herbicidal ratio of 90% or more (almost completely withered))

Source: US11000033B2, “Ketone or oxime compound, and herbicide” (NISSAN CHEMICAL CORPORATION, priority 2014, dated 2021)
